Assay results as given in patent US20100035756A1, “TRIAZOLOPHYRIDINE DERIVATIVES AS HERBICIDES” (SYNGENTA LIMITED, priority 2006, published 2010).

Legend:
Assay type in all cases: in vivo
[1] = tested on: Monocotyledonous and dicotyledonous test plants; test: Herbicidal action prior to emergence of the plants (pre-emergence action), Example B1; conditions: preemergence application, 250 g/ha, evaluated after 4 weeks, 100%=total damage, 0%=no damage
Outline: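 Monocot and dicot species were sown in standard soil and sprayed pre-emergence, right after sowing, at 250 g/ha as an aqueous suspension or emulsion. Plants were grown in a greenhouse for 4 weeks. Damage was scored from 0% (none) to 100% (total).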

[2] = tested on: Monocotyledonous and dicotyledonous test plants; test: Herbicidal action after emergence of the plants (post-emergence herbicidal action), Example B2; conditions: postemergent application, 125 g/ha, 2- to 3-leaf stage, evaluated after 2-3 weeks, 100%=total damage
Outline: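 Sprayed at 2- to 3-leaf stage as aqueous suspension (wettable powder) or emulsion (emulsifiable concentrate) at 125 g/ha; plants grown on in greenhouse. Damage scored after 2–3 weeks (100% = total damage, 0% = none).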

Nasturtium officinale = test: Microscreen (pre-emergence), Example B3; conditions: preemergent application, 250 g/ha, evaluated 8 days later, 100%=total damage
Agrostis tenuis = test: Microscreen (pre-emergence), Example B3; conditions: preemergent application, 250 g/ha, evaluated 8 days later, 100%=total damage
Stellaria media = test: Microscreen (pre-emergence), Example B3; conditions: preemergent application, 250 g/ha, evaluated 8 days later, 100%=total damage
Digitaria sanguinalis = test: Microscreen (pre-emergence), Example B3; conditions: preemergent application, 250 g/ha, evaluated 8 days later, 100%=total damage
Solanum nigrum = test: Microscreen (pre-emergence), Example B3; conditions: preemergent application, 250 g/ha, evaluated 8 days later, 100%=total damage
Amaranthus retroflexus = test: Microscreen (pre-emergence), Example B3; conditions: preemergent application, 250 g/ha, evaluated 8 days later, 100%=total damage
Setaria italica = test: Microscreen (pre-emergence), Example B3; conditions: preemergent application, 250 g/ha, evaluated 8 days later, 100%=total damage

`Cc1nnc2c(C(=O)C3=C(O)C(C)(C)C(=O)C(C)(C)C3=O)ccc(C(F)(F)F)n12` [Compound 5.3] was tested, and the “herbicidal damage, ABUTH” value ([1]; ABUTH) was 100%, the “herbicidal damage, AMARE” value ([1]; AMARE) was 100% and the “herbicidal damage, BRAPL” value ([1]; BRAPL) was 70%. The “herbicidal damage, DIGSA” value ([1]; DIGSA) was 100%, the “herbicidal damage, ECHCG” value ([1]; ECHCG) was 100% and the “herbicidal damage, SETFA” value ([1]; SETFA) was 60%. For the same molecule, the “herbicidal damage, STEME” value ([1]; STEME) was 100%, the “herbicidal damage, VERPE” value ([1]; VERPE) was 100% and the “herbicidal damage, ABUTH” value ([2]; ABUTH) was 80%. For the same molecule, the “herbicidal damage, AMARE” value ([2]; AMARE) was 70%, the “herbicidal damage, CHEAL” value ([2]; CHEAL) was 80% and the “herbicidal damage, DIGSA” value ([2]; DIGSA) was 50%. For the same molecule, the “herbicidal damage, SETFA” value ([2]; SETFA) was 50%, the “herbicidal damage, SINAR” value ([2]; SINAR) was 80% and the “herbicidal damage, VERPE” value ([2]; VERPE) was 90%. The “herbicidal damage, XANST” value ([2]; XANST) was 90%, the “herbicidal damage, Nasturtium” value (Nasturtium officinale) was 100% and the “herbicidal damage, Agrostis” value (Agrostis tenuis) was 50%. The “herbicidal damage, Stellaria” value (Stellaria media) was 90%, the “herbicidal damage, Digitaria” value (Digitaria sanguinalis) was 100% and the “herbicidal damage, Solanum” value (Solanum nigrum) was 100%. For the same molecule, the “herbicidal damage, Amaranthus” value (Amaranthus retroflexus) was 100% and the “herbicidal damage, Setaria” value (Setaria italica) was 50%.
